Laboratory results reported in the CheMixHub drug solubility set.

Experiment: xn = mol fraction of the nth substance listed, in the solute-free solvent

CN1CCN(C2=Nc3cc(Cl)ccc3Nc3ccccc32)CC1 + CC#N + O
solubility (g/100 g solution)
Conditions | x2 = 0.04651 | x2 = 0.0989 | x2 = 0.1583 | x2 = 0.2264 | x2 = 0.3051 | x2 = 0.397 | x2 = 0.506 | x2 = 0.6372 | x2 = 0.798
278.15 K | 0.00519 | 0.0208 | 0.0473 | 0.113 | 0.207 | 0.366 | 0.609 | 0.903 | 1.23
283.15 K | 0.00691 | 0.0265 | 0.0589 | 0.138 | 0.248 | 0.431 | 0.707 | 1.04 | 1.39
288.15 K | 0.00905 | 0.034 | 0.0735 | 0.168 | 0.296 | 0.507 | 0.817 | 1.18 | 1.55
293.15 K | 0.0119 | 0.0432 | 0.0905 | 0.2 | 0.347 | 0.589 | 0.938 | 1.34 | 1.73
298.15 K | 0.0151 | 0.0532 | 0.111 | 0.238 | 0.41 | 0.682 | 1.08 | 1.5 | 1.95
303.15 K | 0.0193 | 0.0662 | 0.135 | 0.283 | 0.481 | 0.794 | 1.22 | 1.7 | 2.16
308.15 K | 0.0247 | 0.0831 | 0.164 | 0.336 | 0.558 | 0.91 | 1.39 | 1.92 | 2.39
313.15 K | 0.0308 | 0.101 | 0.197 | 0.398 | 0.642 | 1.05 | 1.56 | 2.11 | 2.64
318.15 K | 0.0384 | 0.123 | 0.233 | 0.465 | 0.746 | 1.19 | 1.75 | 2.37 | 2.91
323.15 K | 0.0473 | 0.15 | 0.281 | 0.542 | 0.855 | 1.35 | 1.96 | 2.63 | 3.2
328.15 K | 0.059 | 0.178 | 0.335 | 0.625 | 0.985 | 1.53 | 2.18 | 2.9 | 3.49

c1ccc2[nH]c(-c3cscn3)nc2c1 + CC#N + O
solubility (g/100 g solution)
Conditions | 283.15 K | 288.15 K | 293.15 K | 298.15 K | 303.15 K | 308.15 K | 313.15 K | 318.15 K | 323.15 K
x2 = 0.04651 | 0.00121 | 0.00153 | 0.00195 | 0.00251 | 0.00312 | 0.00391 | 0.00486 | 0.00604 | 0.00759
x2 = 0.0989 | 0.00381 | 0.0048 | 0.0062 | 0.00795 | 0.00993 | 0.0122 | 0.0152 | 0.0184 | 0.0223
x2 = 0.1583 | 0.00804 | 0.0102 | 0.013 | 0.0163 | 0.0204 | 0.0251 | 0.0307 | 0.0373 | 0.0446
x2 = 0.2264 | 0.0137 | 0.0175 | 0.0219 | 0.027 | 0.0332 | 0.0403 | 0.0487 | 0.0587 | 0.0699
x2 = 0.3051 | 0.0203 | 0.0246 | 0.0311 | 0.0385 | 0.0467 | 0.0564 | 0.0675 | 0.0804 | 0.0944
x2 = 0.397 | 0.0272 | 0.0332 | 0.0403 | 0.049 | 0.0593 | 0.0713 | 0.0845 | 0.1 | 0.118
x2 = 0.506 | 0.0343 | 0.0409 | 0.0505 | 0.0604 | 0.0718 | 0.0849 | 0.1 | 0.121 | 0.141
x2 = 0.6372 | 0.0418 | 0.0499 | 0.0602 | 0.0732 | 0.0874 | 0.103 | 0.123 | 0.145 | 0.168
x2 = 0.798 | 0.0476 | 0.0573 | 0.0693 | 0.0823 | 0.0998 | 0.118 | 0.14 | 0.163 | 0.188
